Reference: ChEMBL document CHEMBL5465560, “Selectivity Literature for EUbOPEN Chemogenomic Library” (2024)

Key:
[1] = molecular target: T1, Serine/threonine-protein kinase Nek9 (Homo sapiens) (UniProt Q8TD19); assay: Selectivity interaction (KinomeScan (DiscoverX)) EUB0001049a NEK9; conditions: at 1 µM
T1 sequence (whole entry): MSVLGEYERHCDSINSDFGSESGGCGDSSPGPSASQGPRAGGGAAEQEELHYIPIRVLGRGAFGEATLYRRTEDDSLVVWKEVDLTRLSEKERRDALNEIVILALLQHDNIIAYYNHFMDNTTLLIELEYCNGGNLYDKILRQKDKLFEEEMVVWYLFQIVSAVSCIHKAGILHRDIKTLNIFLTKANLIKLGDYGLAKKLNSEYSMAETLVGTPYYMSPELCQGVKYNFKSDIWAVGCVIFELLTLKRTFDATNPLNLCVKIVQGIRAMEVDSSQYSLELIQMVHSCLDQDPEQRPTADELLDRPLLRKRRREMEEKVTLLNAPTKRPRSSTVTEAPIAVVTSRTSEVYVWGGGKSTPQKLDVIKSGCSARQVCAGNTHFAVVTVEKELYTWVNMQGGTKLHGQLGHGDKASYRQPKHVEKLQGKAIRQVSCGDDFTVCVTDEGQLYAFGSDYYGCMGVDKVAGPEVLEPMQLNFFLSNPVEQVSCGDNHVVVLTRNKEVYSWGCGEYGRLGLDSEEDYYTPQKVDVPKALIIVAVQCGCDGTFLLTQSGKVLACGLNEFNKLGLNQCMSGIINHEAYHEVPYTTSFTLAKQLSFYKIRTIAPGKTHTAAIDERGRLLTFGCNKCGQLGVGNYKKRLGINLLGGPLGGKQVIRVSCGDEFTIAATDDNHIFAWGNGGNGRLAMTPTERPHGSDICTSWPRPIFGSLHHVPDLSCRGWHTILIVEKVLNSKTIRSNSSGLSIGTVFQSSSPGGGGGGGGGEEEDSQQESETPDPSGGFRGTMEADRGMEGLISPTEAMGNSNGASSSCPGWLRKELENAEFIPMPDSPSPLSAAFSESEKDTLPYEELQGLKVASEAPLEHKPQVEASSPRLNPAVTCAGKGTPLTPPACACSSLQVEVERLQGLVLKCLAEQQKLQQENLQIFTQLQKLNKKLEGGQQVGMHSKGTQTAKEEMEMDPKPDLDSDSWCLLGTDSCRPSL

[2] = molecular target: T2, Cyclin-dependent kinase 11A (Homo sapiens) (UniProt Q9UQ88); assay: Selectivity interaction (KinomeScan (DiscoverX)) EUB0000092b CDK11A; conditions: at 10 µM
T2 sequence (whole entry): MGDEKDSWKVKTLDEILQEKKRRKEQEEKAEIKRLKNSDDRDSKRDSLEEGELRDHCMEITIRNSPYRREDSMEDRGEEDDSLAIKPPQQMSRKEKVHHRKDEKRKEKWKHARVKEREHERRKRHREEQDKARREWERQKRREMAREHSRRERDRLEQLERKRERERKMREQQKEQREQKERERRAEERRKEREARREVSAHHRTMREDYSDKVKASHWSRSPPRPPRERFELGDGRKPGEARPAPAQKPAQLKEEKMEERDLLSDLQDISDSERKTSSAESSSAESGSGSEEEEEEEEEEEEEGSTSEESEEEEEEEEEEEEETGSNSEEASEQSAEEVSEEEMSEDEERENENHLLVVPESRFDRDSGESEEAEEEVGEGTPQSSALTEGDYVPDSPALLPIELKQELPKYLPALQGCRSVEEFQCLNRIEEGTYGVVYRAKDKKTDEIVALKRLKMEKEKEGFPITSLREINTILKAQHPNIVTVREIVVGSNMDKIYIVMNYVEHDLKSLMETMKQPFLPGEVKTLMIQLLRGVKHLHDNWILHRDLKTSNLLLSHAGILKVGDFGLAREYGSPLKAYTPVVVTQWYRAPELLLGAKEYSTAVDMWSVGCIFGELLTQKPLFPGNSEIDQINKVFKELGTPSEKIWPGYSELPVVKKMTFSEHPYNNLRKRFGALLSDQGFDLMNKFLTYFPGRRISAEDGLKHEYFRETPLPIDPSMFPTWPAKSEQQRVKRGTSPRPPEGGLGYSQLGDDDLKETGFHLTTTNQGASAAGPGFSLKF

[3] = molecular target: T3, Serine/threonine-protein kinase 17A (Homo sapiens) (UniProt Q9UEE5); assay: Selectivity interaction (KinomeScan (DiscoverX)) EUB0001619a STK17A; conditions: at 1 µM
T3 sequence (whole entry): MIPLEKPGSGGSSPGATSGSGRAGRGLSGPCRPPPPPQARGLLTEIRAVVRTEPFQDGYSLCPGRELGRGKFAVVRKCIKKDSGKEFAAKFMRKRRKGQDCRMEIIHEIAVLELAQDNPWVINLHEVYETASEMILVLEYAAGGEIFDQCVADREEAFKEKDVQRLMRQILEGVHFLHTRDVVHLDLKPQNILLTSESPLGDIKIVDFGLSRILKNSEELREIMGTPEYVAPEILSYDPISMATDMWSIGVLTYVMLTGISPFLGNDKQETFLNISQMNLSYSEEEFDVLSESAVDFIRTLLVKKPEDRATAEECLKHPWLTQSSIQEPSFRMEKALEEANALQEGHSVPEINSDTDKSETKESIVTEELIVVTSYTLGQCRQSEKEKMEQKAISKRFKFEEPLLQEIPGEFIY

[4] = molecular target: Fibroblast growth factor receptor 4 (Homo sapiens, UniProt P22455); assay: Selectivity interaction (KinomeScan (DiscoverX)) EUB0001619a FGFR4; conditions: at 1 µM
[5] = tested on: Epidermal growth factor receptor (Homo sapiens), P00533 [UNDEFINED MUTATION]; assay: Selectivity interaction (ProQinase) EUB0000171b EGFR; conditions: at 1 µM
Epidermal growth factor receptor (Homo sapiens), P00533 [UNDEFINED MUTATION], sequence (P00533 whole entry, looked up, change not shown): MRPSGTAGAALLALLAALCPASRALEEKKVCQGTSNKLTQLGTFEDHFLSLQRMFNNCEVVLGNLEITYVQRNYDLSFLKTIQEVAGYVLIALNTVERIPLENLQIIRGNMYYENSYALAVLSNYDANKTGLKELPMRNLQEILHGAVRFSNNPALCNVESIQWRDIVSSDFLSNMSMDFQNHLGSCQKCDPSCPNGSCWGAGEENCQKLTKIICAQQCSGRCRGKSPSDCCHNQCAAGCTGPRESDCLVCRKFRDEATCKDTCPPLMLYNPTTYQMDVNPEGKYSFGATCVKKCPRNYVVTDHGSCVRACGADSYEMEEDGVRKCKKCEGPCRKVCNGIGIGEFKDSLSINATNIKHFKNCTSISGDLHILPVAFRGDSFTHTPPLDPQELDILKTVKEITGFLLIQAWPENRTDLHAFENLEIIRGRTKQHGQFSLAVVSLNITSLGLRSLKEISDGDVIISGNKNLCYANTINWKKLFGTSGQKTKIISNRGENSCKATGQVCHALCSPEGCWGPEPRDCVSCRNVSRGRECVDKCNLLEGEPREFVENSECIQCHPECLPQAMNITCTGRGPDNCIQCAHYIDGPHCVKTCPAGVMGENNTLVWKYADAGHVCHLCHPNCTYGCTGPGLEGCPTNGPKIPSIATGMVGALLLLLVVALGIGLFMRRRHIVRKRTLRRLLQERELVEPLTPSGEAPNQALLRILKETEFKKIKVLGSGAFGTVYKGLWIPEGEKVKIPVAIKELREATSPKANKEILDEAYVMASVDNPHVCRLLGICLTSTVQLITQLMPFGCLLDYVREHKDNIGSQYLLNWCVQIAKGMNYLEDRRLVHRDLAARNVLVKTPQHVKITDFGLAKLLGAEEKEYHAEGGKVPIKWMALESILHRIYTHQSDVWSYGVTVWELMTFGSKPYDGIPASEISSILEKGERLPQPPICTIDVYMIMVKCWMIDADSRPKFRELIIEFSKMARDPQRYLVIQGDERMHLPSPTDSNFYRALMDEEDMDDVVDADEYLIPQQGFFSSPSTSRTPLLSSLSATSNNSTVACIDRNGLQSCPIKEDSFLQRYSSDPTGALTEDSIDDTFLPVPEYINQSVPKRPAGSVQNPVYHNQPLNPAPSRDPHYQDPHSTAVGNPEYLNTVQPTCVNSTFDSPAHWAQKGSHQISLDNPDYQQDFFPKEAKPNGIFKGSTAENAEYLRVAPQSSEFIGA

Fibroblast growth factor receptor 4, sequence (P22455 22-802 limits assumed): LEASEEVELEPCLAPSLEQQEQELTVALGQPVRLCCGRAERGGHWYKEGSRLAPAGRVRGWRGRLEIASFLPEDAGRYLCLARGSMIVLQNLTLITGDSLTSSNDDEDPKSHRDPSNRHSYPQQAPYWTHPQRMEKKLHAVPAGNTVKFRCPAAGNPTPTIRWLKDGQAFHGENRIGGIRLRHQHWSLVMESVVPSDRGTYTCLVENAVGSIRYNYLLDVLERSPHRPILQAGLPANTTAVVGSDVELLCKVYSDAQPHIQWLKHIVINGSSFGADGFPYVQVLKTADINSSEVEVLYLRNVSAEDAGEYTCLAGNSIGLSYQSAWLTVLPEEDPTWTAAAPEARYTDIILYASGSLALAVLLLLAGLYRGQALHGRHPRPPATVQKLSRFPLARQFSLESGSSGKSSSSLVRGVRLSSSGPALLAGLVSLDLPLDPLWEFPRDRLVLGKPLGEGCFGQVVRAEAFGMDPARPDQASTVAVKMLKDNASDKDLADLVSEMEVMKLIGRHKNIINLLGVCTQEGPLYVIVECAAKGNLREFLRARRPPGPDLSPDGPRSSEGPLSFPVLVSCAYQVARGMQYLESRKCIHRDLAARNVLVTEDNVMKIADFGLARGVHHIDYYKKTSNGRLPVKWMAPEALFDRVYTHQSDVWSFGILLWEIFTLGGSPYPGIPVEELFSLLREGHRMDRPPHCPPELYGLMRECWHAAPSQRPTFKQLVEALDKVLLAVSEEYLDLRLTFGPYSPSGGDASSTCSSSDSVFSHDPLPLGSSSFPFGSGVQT

`COc1cc(Nc2nc(C)cc(-c3cnn4nc(OC)ccc34)n2)cc(C(F)(F)F)c1` showed a % of control [1] of 94%.
`CCC(=O)N1CCN(c2ccc(-n3c(=O)ccc4cnc5ccc(-c6cnc7ccccc7c6)cc5c43)cc2C(F)(F)F)CC1` gave a % of control [2] of 100%.
`N#Cc1cccc(-c2c[nH]c3ncnc(N4CCOCC4)c23)c1` gave a % of control [3] of 88% and a % of control [4] of 74%.
`C=CC(=O)Nc1cccc(C(=O)Nc2ccc(Nc3cc(-c4[nH]c(SC)nc4C)ccn3)cc2)c1` was tested, and the % of control [5] was 88%.
